The target in one data set is T1, FKBP-12 protein (Homo sapiens, UniProt P62942).
T1 construct: purchased sigma Co
The data set can be described thus: SPR (surface plasma resonance) binding with FKBP-12. As to the method: (1) FKBP-12 protein was purchased from sigma Co.
(2) HBS-EP buffer solution (10 mM Hepes, 150 mM NaCl, 3.4 mM EDTA, 0.005% (v/v) surfactant P20, pH 7.4)
(3) Activating reagents EDC and NHS, and blocking reagents Ethanolamine, etc., were purchased from BIACORE AB Co. (Uppsala, Sweden).
(4) BIAcore 3000 and CM5 chip were purchased from BIACORE AB Co. (Uppsala, Sweden).
(2) […] was coupled to the FC2 channel on CM5 chip by using the Wizard for amino-coupling in Biacore 3000 controlling soft. 3.3 g/L of FKBP-12 protein was diluted with 10 mM NaAC (pH 4.6) to 66 μg/ml. The surface of the chip was washed by injecting a mixture of 0.1M1-(3-dimethylaminopropyl)-3-ethylcarbodiimide hydrochloride (EDCI) and 0.1M N-hydroxysuccinimide (NHS) (1:1) at a flow rate of 20 μL/min for 7 min. After that, the protein solution was injected, and then a 1M cholamine (pH 8.5) solution was fed for 7 min to block the activated surface of the chip. Preliminary screening and pharmacokinetic tests on the compounds
The binding abilities of small molecular compounds with FKBP-12 protein were evaluated by SPR (surface plasma resonance). The stock solution of the compound was 10 mM, and was diluted by HBS-EP buffer solution at given ratios. Pharmacokinetic tests were carried out by the Wizard for kinetic analysis in Biacore 3000 controlling soft. The resulted data were fitted by 1:1 Langmuir binding model or stability model in Biacore 3000 analytical soft to obtain the exact kinetic and thermodynamic constants.

Data set [1] concerns human osteosarcoma U2SO xenograft. As to the kind of experiment: U2SO xenograft on nude mice. The conditions noted are these: Table 5, oral 2.5 mg/kg, 1-5/3 w.
The nature of another data set: in vivo. The data set is classed as in vivo. The following applies: nude, mouse; for concentration at 0.5 h / concentration at 12 h / concentration at 48 h / concentration at 2 h / concentration at 5 h: CCI-779 (prototype) concentration; for Kp: read-out: AUCtissue/AUCplasma.
The subject of data set [2] is DNFB-induced delayed type hypersensitivity reaction. As to the kind of experiment: DNFB-induced delayed type hypersensitivity reaction in mice. The data set is classed as in vivo, BALB/c mice. The following applies: 2 mg/kg/d, oral administration; model control 0.175 mm. The method, then:
The delayed type hypersensitivity (DTH) reaction in mice was induced by DNFB to evaluate the inhibition effect of the compound on DTH in vivo. […] Preparation method: the compound was dissolved in anhydrous alcohol to prepare a stock solution (50 mg/ml), which was diluted to the desired concentration when use by using a solution of 5% PEG400, 5% Tween-80 in sterile water as a solvent. […] DNFB combined with dermal protein to form a complete antigen after sensitizing on feet of mice. One week later, mice were attacked by DNFB on ears to induce a local delayed allergic reaction, i.e., the delayed type hypersensitivity reaction to cause ear swelling, while the delayed type hypersensitivity reaction would not be observed on the ear which had not been attacked. Therefore, the ear swelling can reflect the level of the delayed type hypersensitivity reaction in mice induced by DNFB. (1) 20 μl of 0.5% DNFB solution in a mixture of acetone and olive oil (4:1) as a solvent was applied on both hind legs of mice for sensitization. […] (4) Thickness of the left and right ears of the mice was measured by a micrometer screw gauge, and the swelling was calculated by subtracting the thickness of the left ear from thickness of the right ear.

Data set [3] deals with human rhabdomyosarcoma RH-30 xenograft. The data set can be described thus: RH-30 xenograft on nude mice.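 Also: male BALB/cA nude mice with subcutaneous RH-30 tumors, oral dosing versus solvent-fed controls, caliper tumor volume, RTV relative to grouping day, T/C as treated RTV over control RTV ×100.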 The conditions noted are these: Table 4, 5 mg/kg po, 1-5/2 w.
Description: Animals: BALB/cA nude mice, male, 40-45 days old, body weight: 21±2 g, provided by Shanghai Institute of Materia Medica, Chinese Academy of Sciences. License No.: SCXK (Shanghai) 2004-0002. Animal number in each group: 6 in negative control group, and 6 in administration group.
The amount of inoculated cells was 5×10^6. After the xenograft was formed by inoculation, it was used after passed for 3 generations in nude mice.
Data set [4] is described as follows: Immunosuppressive activity assay: cytotoxicity. The data set is classed as cell-based.
The next data set has as its system T Cells. As to the kind of experiment: Immunosuppressive activity assay: T cells inhibitory activity. The format is cell-based. The conditions noted are these: T-cell; Table 10.
Setting [5] is: in vivo, Blood Plasma, Mean Value.

Where two headings read alike, the source gives them in different places.

T1 sequence (P62942 whole entry, species assumed): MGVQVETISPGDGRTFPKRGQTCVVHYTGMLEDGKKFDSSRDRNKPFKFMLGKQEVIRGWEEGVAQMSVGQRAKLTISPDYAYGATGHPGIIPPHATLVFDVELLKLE

As to `CO[C@H]1C[C@@H]2CC[C@@H](C)[C@@](O)(O2)C(=O)C(=O)N2CCCC[C@H]2C(=O)O[C@H]([C@H](C)C[C@@H]2CC[C@@H](OC(=O)C(C)(CO)CO)[C@H](OC)C2)CC(=O)[C@H](C)/C=C(\C)[C@@H](O)[C@@H](OC)C(=O)[C@H](C)C[C@H](C)/C=C/C=C/C=C/1C` [CCI-779], the “binding with FKBP12” value on FKBP-12 protein is given as “concentration-dependently bind”. For the same compound, the Kd (commonly the free concentration of one partner at which half of the binding sites on the other are occupied at equilibrium, for simple one-to-one binding) at FKBP-12 protein (FKBP12) stood at 0.00102 µM. In data set [1], the “Body Weight (g) end” value is on record as 17.7 g, the “Body Weight (g) start” value was determined as 19.9 g, the RTV came to 17 ± 7.0 and the “T/C (%)” value is 69.0%. Also, the “TV (mm^3) d21” value in data set [1] came to 1446 ± 630 mm^3. For the same compound, the “TV (mm^3) d0” value in data set [1] (baseline) came to 85 ± 17 mm^3. For the same compound, in “in vivo” (in vivo), the “AUC0-t (ng · h/g or ng · h/ml)” value worked out at 1098 ng·h/mL and the AUC(0-t) (as a rule, the area under the concentration-time curve up to a stated or last time point) came to 106 ng·h/mL. In the data set “in vivo” (in vivo, 0.5 h), the “Sirolimus concentration, Blood Plasma, Mean Value” is 123 ng/mL; the “Sirolimus concentration, Liver, Mean Value” was found to be 142 ng/g; the “Sirolimus concentration, Tumor, Mean Value” is listed as 9.03 ng/g. Further, in “in vivo” (in vivo, 2 h), the “Sirolimus concentration, Blood Plasma, Mean Value” stood at 143 ng/mL; the “Sirolimus concentration, Liver, Mean Value” worked out at 98.4 ng/g; the “Sirolimus concentration, Tumor, Mean Value” is listed as 36.3 ng/g. Besides, in “in vivo” (in vivo, 5 h), the “Sirolimus concentration, Blood Plasma, Mean Value” worked out at 58.2 ng/mL; the “Sirolimus concentration, Liver, Mean Value” is given as 83.9 ng/g; the “Sirolimus concentration, Tumor, Mean Value” was 30.3 ng/g. In the data set “in vivo” (in vivo, 12 h), the “Sirolimus concentration, Blood Plasma, Mean Value” was determined as 14.2 ng/mL; the “Sirolimus concentration, Liver, Mean Value” came out at 33.2 ng/g; the “Sirolimus concentration, Tumor, Mean Value” was 19.1 ng/g. Also, in the data set “in vivo” (in vivo, 48 h), the “Sirolimus concentration, Blood Plasma, Mean Value” was found to be 3.08 ng/mL; the “Sirolimus concentration, Liver, Mean Value” was 9.12 ng/g; the “Sirolimus concentration, Tumor, Mean Value” stood at 16.7 ng/g. For the same compound, in the data set “in vivo” (in vivo, Blood Plasma), the concentration at 0.5 h amounted to 20.5 ng/mL, the concentration at 12 h was 1.3 ng/mL and the concentration at 48 h is 0.16 ng/mL. Also, in “in vivo” (setting [5]), the concentration at 0.5 h is 30.9 ng/mL, the concentration at 2 h was 11.7 ng/mL, the concentration at 5 h was 3.67 ng/mL and the concentration at 12 h was 1.27 ng/mL. In the data set “in vivo” (setting [5]), this compound showed a concentration at 48 h of 0.164 ng/mL. In “in vivo” (in vivo, Liver), this compound displayed a concentration at 0.5 h of 392 ng/g, a concentration at 2 h of 103 ng/g and a concentration at 5 h of 45.5 ng/g. In “in vivo” (in vivo, Liver, Mean Value), this compound gave a concentration at 0.5 h of 474 ng/g, a concentration at 2 h of 151 ng/g, a concentration at 5 h of 57.6 ng/g and a concentration at 12 h of 28.6 ng/g. Moreover, the concentration at 48 h in “in vivo” (in vivo, Liver, Mean Value) worked out at 3.11 ng/g. Besides, in the data set “in vivo” (in vivo, Tumor), the concentration at 2 h was found to be 31.1 ng/g, the concentration at 12 h turned out to be 9.37 ng/g and the concentration at 48 h came out at 6.48 ng/g. In the data set “in vivo” (in vivo, Tumor, Mean Value), this compound displayed a concentration at 2 h of 28.8 ng/g, a concentration at 5 h of 16.6 ng/g, a concentration at 12 h of 10.5 ng/g and a concentration at 48 h of 6.52 ng/g. In addition, the Cmax (as a rule, the peak of the concentration-time curve) in “in vivo” (in vivo, Cmax (ng/g or ng/ml)) came to 30.9 ng/mL. Also, the Kp in “in vivo” (liver) was found to be 16.8. In addition, the Kp in “in vivo” (tumor) was determined as 4.77.

Turning to `C[C@@H]1C[C@H]2[C@@H]3CCC4=CC(=O)C=C[C@]4(C)[C@@]3(F)[C@@H](O)C[C@]2(C)[C@@]1(O)C(=O)CO` [Dex], the “average ear swelling degree” value in data set [2] is on record as 0.13 mm.

Regarding `CO[C@H]1CC2CC[C@@H](C)[C@@](O)(O2)C(=O)C(=O)N2CCCCC2C(=O)O[C@H]([C@H](C)C[C@@H]2CC[C@@H](O)[C@H](OC)C2)CC(=O)[C@H](C)/C=C(\C)[C@@H](OC(=O)OCC(O)CO)[C@@H](OC)C(=O)[C@H](C)C[C@H](C)/C=C/C=C/C=C/1C` (some centres unmarked) [Y31-1], in data set [3], the “Body Weight (g) end” value worked out at 21.2 g, the “Body Weight (g) start” value is on record as 20.2 g, the RTV is 2.4 ± 1.0 and the “T/C (%)” value is on record as 55.7%. Moreover, in data set [3], the “TV (mm^3) d14” value is 381 ± 158 mm^3. In addition, the “TV (mm^3) d0” value in data set [3] (baseline) is 164 ± 44 mm^3.

As for `CO[C@H]1CC2CC[C@@H](C)[C@@](O)(O2)C(=O)C(=O)N2CCCCC2C(=O)O[C@H]([C@H](C)C[C@@H]2CC[C@@H](OC(=O)OCC3COC(C)(C)O3)[C@H](OC)C2)CC(=O)[C@H](C)/C=C(\C)[C@@H](OC(=O)OCC2COC(C)(C)O2)[C@@H](OC)C(=O)[C@H](C)C[C@H](C)/C=C/C=C/C=C/1C` (some centres unmarked) [Y230], in data set [4] (Table 10), the “Safety Index CC50/IC50” value is more than 18.9. Moreover, the CC50 (commonly the concentration at which the toxic effect on the cells reaches its halfway point) is 39800 µM in data set [4] (Table 10, value beyond the >100 μM bound, read-out: Cytotoxicity CC50, value in brackets) and more than 100 µM in data set [4] (Table 10, read-out: Cytotoxicity CC50). Also, the IC50 (commonly the concentration that gives 50% inhibition) in the data set with T Cells turned out to be 5.3 µM.
